The viability is a read-out of living cells in per cent, often relative to untreated cells. In general, IC50 refers to the concentration that inhibits the measured activity by half.

Experimental findings from PMC10458971, “Chemical Constituents with Anti-Lipid Droplet Accumulation and Anti-Inflammatory Activity from Elaeagnus glabra” (Plants, 2023) are described below.

What all share (format): cell-based
Series [1] deals with AML12 cell line. The experiment in a line: LD assay: anti-lipid droplet accumulation in oleic-acid-treated AML12 cells (BODIPY 493/503). The protocol:
(§1) In this study, twelve compounds present in sufficient amounts (9, 11, 15, 16, 18–20, 22, 25, 30, 31, and 37) were evaluated for anti-LD accumulation activity (Table 3). To assess the anti-LD formation activity, the average LD counts/cell of bovine serum albumin (BSA)-conjugated oleic acid (OA) + drug vehicle (DMSO)-treated wells (hereinafter referred to as OA) were used as the standard for 100% fat loading, and triacsin C (TC) was used as the reference control. […] In Figure 5A, the blue pseudocolor indicates the nuclei area, and the green ones depict the LD area.
Figure 5 Effect of methyl pheophorbide a (37) on LD accumulation. (A) Representative images of the anti-LD formation activity of methyl pheophorbide a (37). (B) Quantification results of the LD assay and cell viability. AML12 cells were treated with BSA or OA (125 µM) with 20 µM methyl pheophorbide a (37) for 24 h. AML12 cells were used as a cell model for lipid accumulation—they were treated with 125 μM oleic acid (OA) for 24 h. Nuclei and LD were stained with Hoechst 33342 (blue) and BODIPY® 493/503 (green), respectively. The asterisk indicates a significant difference from the solvent control cells (*** p < 0.001, one-way ANOVA). TEXT PRINTED IN THE PICTURE: (B) BSA: Normalized LD Count (%): 17.3% *** | (B) OA: Normalized LD Count (%): 100.0% | (B) OA + 37: Normalized LD Count (%): 0.3% ***
(§2) Cells were cultured as described previously. The medium for AML12 (BCRC 60326; Bioresources Collection and Research Center (BCRC), Hsinchu, Taiwan) was a 1:1 mixture of DMEM and Ham’s F12 medium with 10% FBS and 1× ITS-A supplement (Thermo Fisher Scientific).
The LD accumulation of the test compounds was evaluated according to the studies published by co-author Professor Chia-Hung Yen. The LD accumulation was detected by BODIPY® 493/503 dye (Thermo Fisher Scientific). LD accumulation was achieved by treating cells with OA conjugated to BSA. All data were analyzed with GraphPad Prism 6.01 software (La Jolla, CA, USA). One-way analysis of variance (ANOVA) followed by Tukey’s comparison test was used to compare differences between multiple groups. A p-value < 0.05 was considered statistically significant.

The nature of series [2]: Cell viability (nucleus counts, DAPI image) in AML12 cells. The settings on record: mouse. The method, then: as §1, §2
In series [3] the test system is fMLP/CB-induced human neutrophils. Briefly: Superoxide anion generation in fMLP/CB-induced human neutrophils. As to conditions: for IC50: fMLP/CB-induced human neutrophils, mean ± S.E.M. (n = 3–4); for Inhibitory activity toward superoxide anion generation or elastase release (preliminary screening, Inh%): 10 μM, Figure 6. The text has this: (§3) NAFLD is accompanied by inflammation. In the NASH stage, the liver is inflamed. As the NAFLD progresses, persistent inflammation causes scar tissue around the liver; this is called the fibrosis stage. After years of inflammation, liver damage occurs and becomes cirrhosis. To explore the potential of compounds for managing inflammation, eight compounds were preliminarily evaluated for their effects on neutrophil pro-inflammatory responses by suppressing fMLP/CB-induced superoxide anion generation and elastase release (Figure 6 and Table 4). […] These two compounds were further evaluated for their anti-inflammatory activity IC50 values (Table 4).
(§4) Neutrophils were collected from healthy adults aged 20–35 and isolated using Ficoll-Paque density separation. The study was approved by Chang Gung Memorial Hospital’s Institutional Review Board (IRB No. 201902217A3) following the Declaration of Helsinki guidelines. The methods for testing the effects of isolates on superoxide anion generation and elastase release in neutrophils were based on studies published by Professor Tsong-Long Hwang. Ferricytochrome c (0.6 mg/mL) was used to measure superoxide anion. Elastase substrate (methoxysuccinyl-Ala-Ala-Pro-Val-p-nitroanilide, 100 µM; Merck) was employed to detect the elastase release. The elastase level was detected using a spectrophotometer at OD 405 nm. A PI3K inhibitor, namely, LY29002, was used as a positive control in the neutrophil assays. All assays were repeated at least three times. Results are presented as the mean ± standard error of the mean (S.E.M.). Student′s t-test was used to compare the test isolates with a DMSO (0.1%) control. A probability of less than 0.05 was considered significant.

Series [4] shares this test system. The experiment in a line: Elastase release in fMLP/CB-induced human neutrophils. As to conditions: mean ± S.E.M. (n = 3–4).
Excerpt: as §3, §4

In series [5] the test system is AML12 cell line. Briefly: Cell viability (nucleus counts, DAPI image) in AML12 cells. As to conditions: AML12; for Cell Viability (%, 24h, DAPI Image): compound 100 μg/mL, nucleus counts of DMSO = 100%. The protocol: as §1, §2
Where [6] appears, read: Mus musculus, AML12, read-out: Relative Lipid Droplet Count (%).
[7] abbreviates: compound 100 μg/mL, 24 h, AML12, nucleus counts of DMSO = 100%, read-out: Cell Viability (%, 24h, DAPI Image).
Setting [8] is: compound 100 μg/mL, AML12, average LD counts/cell of oleic-acid-treated group = 100% fat-loading.
The mark [9] stands for this setting: Mus musculus, compound 100 μg/mL, AML12, average LD counts/cell of oleic-acid-treated group = 100% fat-loading, read-out: Relative Lipid Droplet Count (%).
Where [10] appears, read: AML12 cells, compound 100 μg/mL, 24 h, AML12, nucleus counts of DMSO = 100%, read-out: Cell Viability (%, 24h, DAPI Image).

Entries after “also recorded” stand apart in the source; their conditions may differ. Like-named read-outs stand apart in the source and are kept apart here.

For `COc1cc(C=O)cc(OC)c1O` [syringaldehyde (25), syringaldehyde], the activity at 100 µg/mL with AML12 cell line [1] (setting [6]) worked out at 102 ± 5%. Also, the viability at 24 h, 100 μg/mL in series [2] (setting [7]) is 138 ± 5.7%. Also, the IC50 in series [3] (Neutrophil) and in series [4] (Neutrophil) was greater than 10 µM each time.

As to `CC1(C)CC[C@@]23CC[C@]4(C)[C@@](OC2=O)([C@@H]3C1)[C@H]1O[C@H]1[C@@H]1[C@@]2(C)CC[C@H](OC(=O)/C=C/c3ccc(O)c(O)c3)C(C)(C)[C@@H]2CC[C@]14C` [elaeagterpene A (2), (3S,4aR,6aR,6bS,8aS,12aR,12bS,12cS,13aS,13bR,13cS)-4,4,6a,6b,11,11,13c-Heptamethyl-15-oxooctadecahydro-1H,9H-12b,8a-(epoxymethano)piceno [13,14-b]oxiren-3-yl(E)-3-(3,4-dihydroxyphenyl)acrylate], the IC50 was greater than 10 µM in series [3] (Homo sapiens, Neutrophil) and greater than 10 µM in series [4] (Homo sapiens, Neutrophil).

On to `CC[C@H](CC[C@@H](C)[C@H]1CC[C@H]2[C@@H]3CC=C4C[C@@H](O)CC[C@]4(C)[C@H]3CC[C@]12C)C(C)C` [β-sitosterol (30), β-sitosterol], for which the activity at 100 µg/mL with AML12 cell line [1] (setting [6]) came out at 113 ± 7.6%. The viability at 24 h, 100 μg/mL in series [2] (setting [7]) worked out at 128 ± 9.1%.

On to `C=C(C)C1CCC2(C(=O)O)CCC3(C)C(CCC4C5(C)CCC(OC(=O)C=Cc6ccc(O)c(O)c6)C(C)(C)C5CCC43C)C12` (single isomer, unassigned; (+)) [(+)-3β-O-trans-caffeoyl betulinic acid], for which the IC50 in series [3] and in series [4] was greater than 10 µM throughout.

With `Oc1cc(O)c2c(c1)O[C@H](c1cc(O)c(O)c(O)c1)[C@H](O)C2` [(−)-epigallocatechin (19), (−)-epigallocatechin], the “Relative Lipid Droplet Count (%)” value in the series with AML12 cell line [1] (setting [8]) worked out at 93.5 ± 6.6%.

Turning to `CCC/C=C/C/C=C/C=C/C=N/NN=O` [TC, Triacsin C, reference compound], in the series with AML12 cell line [1] (setting [6]), the activity at 0.008 µM turned out to be 60.6 ± 0.2%. In addition, the viability at 24 h, 0.008 µM in series [2] (positive control, drug concentration 8 nM, 24 h, AML12, DMSO = 100%) came out at 126 ± 6.1%.

On to `Oc1cc(O)c2c(c1)O[C@@H](c1cc(O)c(O)c(O)c1)[C@H](O)C2` [(−)-gallocatechin (20), (−)-gallocatechin], for which the activity at 100 µg/mL in the series with AML12 cell line [1] (setting [9]) was determined as 117 ± 7.8%. Also, the viability at 24 h, 100 μg/mL in series [2] was found to be 154 ± 6.2%.

Take `O=C(O)c1ccc(CCO)cc1` [4-(2-hydroxyethyl)benzoic acid (26), 4-(2-hydroxyethyl)benzoic acid]: the IC50 in series [3] (Homo sapiens, Neutrophil) is greater than 10 µM; in series [4] (Homo sapiens, Neutrophil), greater than 10 µM.

Regarding `CC1(C)CC[C@]2(C(=O)O)CC[C@]3(C)C(=CCC4[C@@]5(C)CC[C@H](OC(=O)/C=C/c6ccc(O)c(O)c6)C(C)(C)C5CC[C@]43C)C2C1` (stereo partly shown) [3-O-(E)-caffeoyloleanolic acid (13), 3-O-(E)-caffeoyloleanolic acid], in series [3], the “Inhibitory activity toward superoxide anion generation or elastase release (preliminary screening, Inh%)” value is given as “significant inhibitory activity” and the IC50 was found to be 3.01 ± 0.58 µM. In series [4], this compound yielded an IC50 greater than 10 µM.

As to `C[C@H]1[C@H](C)CC[C@]2(C(=O)O)CC[C@]3(C)C(=CC[C@@H]4[C@@]5(C)CC[C@H](O)C(C)(C)[C@@H]5CC[C@]43C)[C@H]12` [ursolic acid (11), ursolic acid], in the series on AML12 cell line [1] (setting [9]), the activity at 100 µg/mL amounted to 99.2 ± 4%. The viability at 24 h, 100 μg/mL in series [2] (setting [10]) was 146 ± 4.5%.

Take `C=C(C)[C@@H]1CC[C@]2(C)CC[C@]3(C)[C@H](CC[C@@H]4[C@@]5(C)CC[C@H](O)C(C)(C)[C@@H]5CC[C@]43C)[C@@H]12` [lupeol (9), lupeol]: the activity at 100 µg/mL in the series with AML12 cell line [1] (setting [9]) came out at 95.2 ± 1.8%. In addition, in series [2] (setting [10]), the viability at 24 h, 100 μg/mL amounted to 114 ± 3.6%.

Turning to “plumbocatechin A [plumbocatechin A (22)]”, the “Relative Lipid Droplet Count (%)” value in the series on AML12 cell line [1] (setting [8]) was determined as 118.2 ± 3.1%. Further, the “Cell Viability (%, 24h, DAPI Image)” value in the series on AML12 cell line [5] is listed as 147.8 ± 9.6%.

`Oc1cc(O)c2c(c1)O[C@@H](c1ccc(O)c(O)c1)[C@H](O)C2` [(−)-catechin (16), (−)-catechin]: the activity at 100 µg/mL in the series on AML12 cell line [1] (setting [9]) is 111 ± 5.1%. Further, the viability at 24 h, 100 μg/mL in series [2] (setting [10]) turned out to be 154 ± 12.3%.

In the case of “plumbocatechins B [plumbocatechins B (15)]”, the “Relative Lipid Droplet Count (%)” value in the series with AML12 cell line [1] (setting [8]) came to 105.9 ± 7.8%. Further, the “Cell Viability (%, 24h, DAPI Image)” value with AML12 cell line [5] is recorded as 132.5 ± 11.8%.

As to `Oc1cc(O)c2c(c1)O[C@H](c1ccc(O)c(O)c1)[C@H](O)C2` [(−)-epicatechin (18), (−)-epicatechin], the activity at 100 µg/mL in the series with AML12 cell line [1] (setting [9]) is 116 ± 6%. The viability at 24 h, 100 μg/mL in series [2] (setting [10]) is 146 ± 10.3%.

For `CC1(C)CC[C@]2(C(=O)O)CC[C@]3(C)C(=C[C@@H](O)[C@@H]4[C@@]5(C)C[C@@H](O)[C@H](O)[C@@](C)(CO)[C@@H]5CC[C@]43C)[C@@H]2C1` [cleistocalyxic acid E (7), cleistocalyxic acid E], the IC50 in series [3] and in series [4] was greater than 10 µM in each case.

Regarding `CC1(C)CCC23CCC4(C)C5(C)CCC6C(C)(CO)C(O)C(O)CC6(C)C5C5OC5C4(OC2=O)C3C1` (stereo not drawn) [2α,3β,23-trihydroxy-11α,12α-epoxyolean-28,13β-olide], the IC50 in series [3] and in series [4] was greater than 10 µM throughout.

Regarding `C=Cc1c(C)c2cc3nc(c4c5[nH]c(cc6nc(cc1[nH]2)C(C)=C6CC)c(C)c5C(=O)[C@@H]4C(=O)OC)[C@@H](CCC(=O)OC)[C@@H]3C` [methyl pheophorbide a (37), methyl pheophorbide a], the LD content reduction entry with AML12 cell line [1] (20 μM, AML12) is “more than 90%”. Besides, the “Normalized LD Count (%) / normalized LD content” value in the series on AML12 cell line [1] (20 μM, AML12, OA 125 μM, 24 h, OA = 100%) came out at 0.3%. For the same compound, the activity at 100 µg/mL in the series on AML12 cell line [1] (setting [9]) turned out to be 0.3 ± 0.1%. Also, the viability at 24 h, 100 μg/mL in series [2] (setting [10]) is 99.5 ± 5.4%. Moreover, the Cytotoxicity result with AML12 cell line [5] (20 μM) is “without significant cytotoxic effects; also recorded: without cytotoxicity”. The “Cell Viability (%, 24h, DAPI Image)” value in the series on AML12 cell line [5] was “did not affect the cell viability”. In addition, the “Inhibitory activity toward superoxide anion generation or elastase release (preliminary screening, Inh%)” value in series [3] was “significant inhibitory activity”. The half-maximal inhibitory concentration (IC50) in series [4] (Homo sapiens, Neutrophil) was less than 3 µM; in series [4], 2.35 ± 0.12 µM.

As for `CC[C@H](CC[C@@H](C)[C@H]1CC[C@H]2[C@@H]3CCC4=CC(=O)CC[C@]4(C)[C@H]3CC[C@]12C)C(C)C` [β-sitosterone (31), β-sitosterone], in the series on AML12 cell line [1] (setting [8]), the “Relative Lipid Droplet Count (%)” value is given as 121.5 ± 4.3%. Besides, in the series on AML12 cell line [5], the “Cell Viability (%, 24h, DAPI Image)” value was 135.3 ± 7.3%.

As to `O=c1cc(N2CCOCC2)oc2c(-c3ccccc3)cccc12` [LY294002, reference compound], the IC50 in series [3] (Homo sapiens, Neutrophil) is 1.29 ± 0.52 µM; in series [4] (Homo sapiens, Neutrophil) it was 2.61 ± 0.72 µM.
